The values that follow are results of earlier work, collected in the CATMoS acute toxicity set (Mansouri et al. 2021).

Where “and” joins values, the source holds several entries; their conditions need not be identical. Identical values can stand only once.

The nature of this data set: rat acute oral toxicity. The conditions noted are these: in vivo.
`CCCN(CCC)c1c([N+](=O)[O-])cc(C)cc1[N+](=O)[O-]`: the LD50 is 3600 mg/kg.

On to `Cn1c(=O)c2c(ncn2CC2SCCS2)n(C)c1=O`, for which the 50% lethal dose (LD50) was 1840 mg/kg.

Turning to `CC(=O)N(C)N=O`, the 50% lethal dose (LD50) is 20 mg/kg.

Regarding `CNC(=O)c1cc(Cl)ccn1`, the LD50 was 500 mg/kg.

In the case of `OCCN1CCN(CCCN2c3ccccc3Sc3ccc(Cl)cc32)CC1`, the 50% lethal dose (LD50) was 318 mg/kg and 210 mg/kg.

With `CCC1CCCC(CC)C1N` (stereo not drawn), the LD50 was 157 mg/kg.

As for `CCc1cc2c(cc1C=O)C(C)(C)CCC2(C)C`, the median lethal dose (LD50) was 3200 mg/kg.

As for `C[C@H]1C[C@H]2[C@@H]3CCC4=CC(=O)C=C[C@]4(C)[C@@]3(F)[C@@H](O)C[C@]2(C)[C@@]1(O)C(=O)COP(=O)(O)O`, the LD50 is 1880 mg/kg.

`NC(=O)C(=O)O`: the LD50 is 21100 mg/kg.

For `c1ccc(-c2nnn[nH]2)cc1`, the LD50 is 1900 mg/kg.

In the case of `CCOCN(C(=O)CO)c1c(C)cccc1CC`, the LD50 was 2400 mg/kg.

In the case of `CCN(CC)CCSSCCN(CC)CC`, the median lethal dose (LD50) is 340 mg/kg.

As to `CCCC1OCS/C1=N\OC(O)=NC` (stereo not drawn), the LD50 was 83 mg/kg.

On to `O=S(=O)(c1ccc(NC([C@H](O)[C@@H](O)[C@H](O)[C@H](O)CO)S(=O)(=O)O)cc1)c1ccc(NC([C@H](O)[C@@H](O)[C@H](O)[C@H](O)CO)S(=O)(=O)O)cc1` (stereo partly drawn), for which the LD50 is 3000 mg/kg.

Regarding `COc1ccc2c(c1)C13CCCCC1C(C2)N(C)CC3` (stereo not drawn), the LD50 was 235 mg/kg.

For `CN=C(O)O/N=C1/SC(C)OC1C` (stereo not drawn), the LD50 is 4.5 mg/kg.

For `O=C(OC1CC2CCC(C1)[N+]21CCCC1)C(O)(c1ccccc1)c1ccccc1` (stereo not drawn), the 50% lethal dose (LD50) is 1500 mg/kg.

Regarding `Cc1cccc(N(CCO)CCO)c1`, the LD50 was 3100 mg/kg.

Regarding `CCOCCC#N`, the LD50 was 3200 mg/kg.

Turning to `N#CC(OC1OC(COC2OC(CO)C(O)C(O)C2O)C(O)C(O)C1O)c1ccccc1` (stereo not drawn), the median lethal dose (LD50) was 517 mg/kg.

For the compound `BrC1(Br)C2CCC1CC2`, the LD50 was 210 mg/kg.

For the compound `Fc1cc(Cl)c2nc(C(F)(F)F)[nH]c2c1`, the LD50 was 1.98 mg/kg.

`CP(C)(=O)CN1C(=O)CN=C(c2ccccc2)c2cc(Cl)ccc21`: the LD50 was 3110 mg/kg.

With `CNC(=O)Oc1ccc2c(c1)[C@]1(C)CCN(C)[C@@H]1N2C`, the median lethal dose (LD50) was 4.5 mg/kg.

For `CN(C)C(=O)NC1CCCCCCC1`, the LD50 is 1500 mg/kg.

Regarding `CCCNNc1ccccc1`, the LD50 was 13 mg/kg.

For `O=C1CCC(=O)N1c1cc(Cl)cc(Cl)c1`, the LD50 was 890 mg/kg.

`CCCCCCCCOS(=O)(=O)O`: the LD50 was 3200 mg/kg.

Regarding `CC(C)(N)CCCCCCCCCCOCCO`, the LD50 is 1850 mg/kg.

Turning to `CCCCn1c2ccccc2c2cc(N)ccc21`, the LD50 is 946 mg/kg.

`COP(=O)(OC)Oc1ccc([N+](=O)[O-])cc1`: the median lethal dose (LD50) was 3.27 mg/kg.

Consider `Nc1ncnc2c1ncn2[C@@H]1O[C@H](COP(=O)(O)O)[C@@H](O)[C@H]1O`, for which the LD50 is 11200 mg/kg.

With `O=C1c2cc(Cl)ccc2OC2CCON12` (stereo not drawn), the LD50 is 1550 mg/kg.

Take `Cc1ccc(Cl)c(Nc2ccccc2C(=O)O)c1Cl`: the LD50 is 100 mg/kg.

Turning to `CN1CCCCC1C(CO)(c1ccccc1)c1ccccc1` (stereo not drawn), the 50% lethal dose (LD50) is 410 mg/kg.

As to `Nc1cccc(-n2ccccc2=O)c1`, the median lethal dose (LD50) is 2300 mg/kg.

For `Cc1ccc(N=CN(C)SN(C)C=Nc2ccc(C)cc2C)c(C)c1`, the LD50 was 300 mg/kg.

Take `CCNC(=S)NCC`: the LD50 is 316 mg/kg.

Consider `CO[C@@H]1[C@@H](O[C@@H]2O[C@H](C)[C@@H](O[C@H]3C[C@@](C)(O)[C@@H](OC(=O)CC(C)C)[C@H](C)O3)[C@H](N(C)C)[C@H]2O)[C@@H](CC=O)C[C@@H](C)[C@@H](O)C=CC=CC[C@@H](C)OC(=O)C[C@H]1O`, for which the median lethal dose (LD50) is 6990 mg/kg.

On to `N#Cc1ccccc1Cl`, for which the LD50 was 396 mg/kg.

`NC(=O)Nc1cccc2c3c([nH]c12)CCCC3`: the LD50 is 2770 mg/kg.

As for `COc1ccc2c(c1)c(CC(=O)OCC(C(=O)O)c1ccccc1)c(C)n2C(=O)c1ccc(Cl)cc1` (stereo not drawn), the 50% lethal dose (LD50) was 140 mg/kg.

As to `CN(C)N=Nc1ccc(C(=O)O)cc1`, the LD50 was 320 mg/kg.

For `O=[N+]([O-])c1cc2nc(C(F)(F)F)[nH]c2cc1Cl`, the LD50 is 5.55 mg/kg.

In the case of `CN(CCO)Cc1cc(C(=O)c2cccs2)cc(C(C)(C)C)c1O`, the LD50 was 1000 mg/kg.

In the case of `CCCCC(CC)COC(=O)COc1cc(Cl)c(Cl)cc1Cl` (stereo not drawn), the LD50 was 500 mg/kg.

In the case of `O=S1(=O)CC(Cl)(Cl)C(Cl)(Cl)C1`, the 50% lethal dose (LD50) is 87 mg/kg.

As for `CCOP(=S)(OCC)SCCSCC(=O)NC`, the median lethal dose (LD50) is 18 mg/kg.

Consider `CN1C(=O)CN=C(c2ccccc2F)c2cc([N+](=O)[O-])ccc21`, for which the LD50 is 415 mg/kg.

Take `COP(=O)(OC)OC(Cl)C(Cl)(Br)Br` (stereo not drawn): the 50% lethal dose (LD50) was 49 mg/kg.

With `CCN(CC)c1nc(N(C=NC2CC(C)(C)NC(C)(C)C2)C2CC(C)(C)NC(C)(C)C2)nc(N(C=NC2CC(C)(C)NC(C)(C)C2)C2CC(C)(C)NC(C)(C)C2)n1`, the LD50 was 826 mg/kg.

As for `CC1(C)S[C@@H]2[C@H](NC(=O)COc3ccc(Cl)c(Cl)c3)C(=O)N2[C@H]1C(=O)O`, the LD50 is 2500 mg/kg.

Turning to `O=c1oc2cc(O)ccc2s1`, the LD50 is 633 mg/kg.

On to `C=CCc1c(O)c(CN2CCN(CCO)CC2)cc2c(C)cc(=O)oc12`, for which the LD50 was 3160 mg/kg.

Turning to `NCCCn1ccnc1`, the LD50 was 1780 mg/kg.

As for `CCC(C)=C1C(=O)N(c2ccccc2)N(c2ccccc2)C1=O`, the LD50 was 2020 mg/kg.

For the compound `CCC(C)=CCCC(C)=O`, the LD50 is 3570 mg/kg.

With `Nc1ccccc1Cl`, the LD50 was 1020 mg/kg.

Take `CON=C(C(=O)N[C@@H]1C(=O)N2C(C(=O)O)=C(COC(N)=O)CS[C@H]12)c1ccco1`: the LD50 was 10000 mg/kg.

In the case of `CCC(=O)CC(C)CC` (stereo not drawn), the median lethal dose (LD50) is 3500 mg/kg.

Take `CCCCCl`: the 50% lethal dose (LD50) was 2670 mg/kg.

For the compound `CC(C(=O)O)c1ccc2oc3ccccc3c(=O)c2c1` (stereo not drawn), the 50% lethal dose (LD50) was 720 mg/kg.

Turning to `COP(=S)(OC)C(C(=O)O)c1ccccc1` (stereo not drawn), the 50% lethal dose (LD50) is 4500 mg/kg.

`OC[C@@H](O)[C@@H](O)[C@H](O)[C@H](O)CO`: the LD50 is 13500 mg/kg.

With `CCC(C)OC(C)=O` (stereo not drawn), the LD50 was 3200 mg/kg.

As for `CCO[Si](C)(C)OCC`, the median lethal dose (LD50) was 9280 mg/kg.

With `OC1(c2ccccc2)c2cc(F)ccc2C2=NCCN21` (stereo not drawn), the LD50 is 40 mg/kg.

On to `NS(=O)(=O)c1ccccc1`, for which the 50% lethal dose (LD50) is 991 mg/kg.

In the case of `COc1c(C(=O)CCC(=O)O)ccc2c(C)c(C)oc12`, the LD50 is 3000 mg/kg.

As for `CC(C)=Cc1ccc(C(C)C(=O)O)cc1` (stereo not drawn), the median lethal dose (LD50) is 1300 mg/kg.

As to `COC(=O)Nc1nc2ccc(C(=O)c3ccc(F)cc3)cc2[nH]1`, the LD50 was 2560 mg/kg.

As to `CC(Cc1ccccc1)OC(N)=O` (stereo not drawn), the median lethal dose (LD50) is 1100 mg/kg.

In the case of `CCOC(=O)CSP(=O)(OCC)OCC`, the LD50 is 45 mg/kg.

In the case of `Cc1[nH]c(=O)c(C#N)cc1-c1ccc2nccn2c1`, the LD50 was 7800 mg/kg.

As to `O=c1[nH]c2cc(Cl)c(Br)cc2o1`, the LD50 was 500 mg/kg.

For `O=C1C(CCC2CC2)C(=O)N(c2ccccc2)N1c1ccccc1`, the median lethal dose (LD50) was 400 mg/kg.

`Cc1cc(C)c(Cc2cc(C)c(C)cc2C)cc1C`: the median lethal dose (LD50) was 4500 mg/kg.

In the case of `Ic1ccc(Nc2nnc(CCN3c4ccccc4Sc4ccccc43)s2)cc1`, the 50% lethal dose (LD50) was 3100 mg/kg.

As to `CCCCCCCCCCC(C)c1ccc(S(=O)(=O)O)cc1` (stereo not drawn), the LD50 was 437 mg/kg.

For `Cc1ccc(N)cc1O`, the LD50 was 3600 mg/kg.

Turning to `CN(C)CCCNC1=C2C(=CC=CC2[N+](=O)[O-])N(O)c2ccccc21` (stereo not drawn), the median lethal dose (LD50) was 110 mg/kg.

With `COC(=O)[C@@](C)(N)Cc1ccc(O)c(C)c1`, the 50% lethal dose (LD50) was 1400 mg/kg.

Consider `CN(C)N=Nc1ccc(I)cc1`, for which the LD50 was 574 mg/kg.

For orientation: LD50 means the dose at which mortality reaches 50%.
